Data on 1 compound can be found in patent US20240366539A1, “METHODS FOR TREATING AUTISM SPECTRUM DISORDERS” (INSTITUT NATIONAL DE LA SANTÉ ET DE LA RECHERCHE MÉDICALE, priority 2021, published 2024).

Structures are written as SMILES.

Test [1] has as its system Fmr1^−/− mice. Briefly: Marble-burying. The format is in vivo, mouse. As to conditions: Fmr1+/+ and Fmr1−/− mice; chronic NaBr 250 mg/kg once daily. As to the method: (§1) Mice were treated with vehicle (NaCl 0.9%; ip, 10 or 20 ml/kg), NaBr (Sigma-Aldrich, Saint-Quentin Fallavier, France) administered either chronically (once a day, 10, 30, 70, 125, 250 and 500 mg/kg; i.p. or per os, in a volume of 20 ml/kg—except for combination with VU0155041: […]) or acutely (250 mg/kg, 20 ml/kg), KBr (Sigma-Aldrich, Saint-Quentin Fallavier, France; 145 mg/kg; i.p., 20 ml/kg), bumetanide (R&D systems, Minneapolis, USA, 0.5 and 2 mg/kg; i.p., 20 ml/kg) or VU0155041 (Cayman Chemicals, Ann Arbor, USA, once a day, i.p., 1 mg/kg, 10 ml/kg). […] When treatment was given chronically, behavioral testing started 8 days after beginning of daily administration. Treatment was maintained for 8 to 18 consecutive days (see timelines in FIGS. 1 and 4), allowing thorough behavioral phenotyping. On testing days, or when treatment was given acutely, drugs (or vehicle) were administered 30 min before behavioral assays.
(§2) Marble-burying. Marble burying was used as a measure of perseverative behavior (68). Mice were introduced individually in transparent cages (21×11×17 cm) containing 20 glass marbles (diameter: 1.5 cm) evenly spaced on 4-cm deep fresh sawdust. To prevent escapes, each cage was covered with a filtering lid. Light intensity in the room was set at 40 lux. The animals were removed from the cages after 15 min, and the number of marbles buried more than half in sawdust was quoted.
(§3) To this purpose, we evaluated the effects of chronic NaBr administration at the dose of 250 mg/kg on autism-sensitive behaviors in these lines (FIG. 3A).

For test [2], the system named is Shank3^Δex13-16−/− mice. Briefly: Marble-burying. Particulars: Shank3Δex13-16−/− and WT mice, chronic NaBr 250 mg/kg once daily. The format is in vivo, mouse. As for the experimental part: as §1, §2, §3
In test [3] the test system is Oprm1^−/− mice. Briefly: Behavioral tests of social, repetitive and anxious behavior (oral NaBr, KBr; data not shown). As to conditions: mouse, in vivo, po, 250 mg/kg. As for the experimental part:
as §1
Also, we assessed the behavioral effects of chronic administration of another bromide salt, KBr.

Test [4] relates to Oprm1^−/− mice. Briefly: Tail-immersion test. It is filed as in vivo, mouse. Particulars: 50° C., NaBr 70 mg/kg, VU0155041 1 mg/kg, alone or combined, chronic. As to the method: as §1
Tail-immersion test. Nociceptive thresholds were assessed by immersing the tail of the mice (5 cm from the tip) successively into water baths at 48° C., 50° C. and 52° C. The latency to withdraw the tail was measured at each temperature, with a cutoff of 10 s.

Test [5] has as its system Fmr1^−/− mice. Briefly: Three-chamber social preference test. The format is in vivo, mouse. As to conditions: chronic NaBr 250 mg/kg once daily. As to the method: as §1
Three-chamber social preference test. The test apparatus consisted of a transparent acrylic box (exterior walls blinded with black plastic film); partitions divided the box into three equal chambers (40×20×22.5 cm). Two sliding doors (8×5 cm) allowed transitions between chambers. Cylindrical wire cages (18×9 cm, 0.5 cm diameter-rods spaced 1 cm apart) were used to contain the mouse interactor and object (soft-toy mouse). The test was performed in low-light conditions (15 lx) to minor anxiety. Stimulus wild-type mice were habituated to confinement in wire cages for 2 days before the test (20 min/day). On testing day, the experimental animal was introduced to the middle chamber and allowed to explore the whole apparatus for a 10-min habituation phase (wire cages empty) after the sliding doors were raised. The experimental mouse was then confined back in the middle-chamber while the experimenter introduced an unfamiliar wild type age and sex-matched animal into a wire cage in one of the side-chambers and a soft toy mouse (8×10 cm) in the second wire cage as a control for novelty. Then the experimental mouse was allowed to explore the apparatus for a 10-min interaction phase. The time spent in each chamber, the time spent in nose contact with each wire cage (empty: habituation; containing a mouse or a toy: interaction), as well as the number of these nose contacts were scored a posteriori on video recordings using an ethological keyboard (Labwatcher®, View Point, Lyon, France) by trained experimenters. […] The relative position of stimulus mice (versus toy) was counterbalanced between groups.
as §3

Regarding `[Br-].[Na+]` [NaBr, sodium bromide], the “number of buried marbles” value in test [1] was “reduced the number of buried marbles in both Fmr1^+/+ and Fmr1^−/− mice”. For the same compound, the marble burying entry in test [2] is reported as “had no effect on reduced burying in Shank3^Δex13-16−/− mice”. In test [2] (listed as bromide), the marble burying entry was “decreased burying in both mutant and WT mice”. Moreover, in test [3], the “autistic-like deficits and motor stereotypies” value is “relieved autistic-like deficits and motor stereotypies in Oprm1^−/− mice in a similar way as it did after intra-peritoneal injection”. In test [4], the “flicking latency (nociceptive threshold)” value is listed as “ineffective”. In addition, in test [5], the “duration of nose contacts with the mouse versus the object” value is “making longer nose contacts with the mouse versus the object”, the “number of nose contacts with either stimulus” value is “without modifying the number of nose contacts”, the preference ratio entry is listed as “normalized their preference ratio” and the “time exploring the mouse versus the object” value is reported as “restored a preference for spending more time exploring the mouse”.
